In the NIST ThermoML archive (doi:10.1016/j.fluid.2012.01.007):

Experiment: excess molar enthalpy (molar enthalpy of mixing); xn = mol fraction of the nth substance listed
Details: 101 kPa, Liquid, Flow calorimetry

C1CCCCC1 [cyclohexane] + CCCCCO
x2 = 0
Details | excess molar enthalpy [kcal/mol]
298.15 K | 0
313.15 K | 0

CCCCCO [pentan-1-ol] + C1CCCCC1
excess molar enthalpy [kcal/mol]
Details | 298.15 K | 313.15 K
x1 = 0.05 | 0.0797 | 0.107
x1 = 0.1 | – | 0.139
x1 = 0.1001 | 0.105 | –
x1 = 0.1501 | 0.124 | 0.161
x1 = 0.2021 | – | 0.177
x1 = 0.2022 | 0.139 | –
x1 = 0.2522 | 0.149 | 0.188
x1 = 0.3022 | 0.155 | 0.193
x1 = 0.3521 | – | 0.196
x1 = 0.3523 | 0.158 | –
x1 = 0.4022 | – | 0.194
x1 = 0.4023 | 0.157 | –
x1 = 0.4522 | – | 0.187
x1 = 0.4523 | 0.153 | –
x1 = 0.5022 | 0.146 | 0.178
x1 = 0.5522 | 0.137 | 0.17
x1 = 0.6022 | 0.126 | 0.152
x1 = 0.6519 | – | 0.139
x1 = 0.6522 | 0.113 | –
x1 = 0.7019 | – | 0.118
x1 = 0.7022 | 0.0982 | –
x1 = 0.7521 | – | 0.0985
x1 = 0.7522 | 0.083 | –
x1 = 0.8021 | 0.065 | 0.0799
x1 = 0.8501 | 0.0493 | 0.0598
x1 = 0.9 | 0.033 | 0.0381
x1 = 0.95 | 0.0162 | 0.0191
x1 = 1 | 0 | 0

CCCCCO [pentan-1-ol] + Cc1ccccc1
excess molar enthalpy [kcal/mol]
Details | 298.15 K | 313.15 K
x1 = 0.0511 | 0.129 | 0.143
x1 = 0.1004 | 0.182 | 0.211
x1 = 0.1497 | 0.211 | –
x1 = 0.1498 | – | 0.252
x1 = 0.2012 | 0.232 | –
x1 = 0.2013 | – | 0.279
x1 = 0.2507 | 0.244 | –
x1 = 0.2508 | – | 0.294
x1 = 0.3003 | 0.251 | 0.299
x1 = 0.35 | 0.254 | 0.299
x1 = 0.3999 | – | 0.3
x1 = 0.4018 | 0.249 | –
x1 = 0.4516 | 0.242 | –
x1 = 0.4518 | – | 0.287
x1 = 0.5016 | 0.229 | 0.277
x1 = 0.5517 | 0.214 | 0.26
x1 = 0.6018 | 0.195 | –
x1 = 0.6019 | – | 0.24
x1 = 0.65 | 0.174 | –
x1 = 0.6501 | – | 0.216
x1 = 0.7003 | 0.151 | –
x1 = 0.7004 | – | 0.19
x1 = 0.7507 | 0.126 | –
x1 = 0.7508 | – | 0.159
x1 = 0.8012 | 0.0992 | –
x1 = 0.8013 | – | 0.129
x1 = 0.8497 | 0.0747 | –
x1 = 0.8498 | – | 0.0978
x1 = 0.9004 | 0.0485 | –
x1 = 0.9005 | – | 0.0638
x1 = 0.9491 | 0.0243 | –
x1 = 0.9492 | – | 0.0315
x1 = 1 | 0 | 0

Cc1ccccc1 [toluene] + CCCCCO
x2 = 0
Details | excess molar enthalpy [kcal/mol]
298.15 K | 0
313.15 K | 0
